Earlier results in US20030073219A1, “Crystal structure” (priority 2001, published 2003).

Molecular target: ApbA protein (ketopantoate reductase) (Salmonella typhimurium, UniProt P37402)
Settings: purified ApbA protein from S. typhimurium; substrate/cofactor KM; read-out: apparent KM

Chain of ApbA protein (ketopantoate reductase) (P37402 whole entry): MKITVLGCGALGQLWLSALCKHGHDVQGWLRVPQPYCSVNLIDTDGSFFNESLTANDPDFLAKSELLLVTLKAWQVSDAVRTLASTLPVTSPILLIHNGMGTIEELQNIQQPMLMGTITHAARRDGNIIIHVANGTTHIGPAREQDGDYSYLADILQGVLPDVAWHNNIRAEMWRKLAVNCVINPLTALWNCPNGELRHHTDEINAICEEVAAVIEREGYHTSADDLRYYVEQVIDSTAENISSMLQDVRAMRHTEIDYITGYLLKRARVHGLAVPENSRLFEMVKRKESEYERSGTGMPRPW

Q: With `NC(=O)C1=CN([C@@H]2O[C@H](COP(=O)(O)OP(=O)(O)OC[C@H]3O[C@@H](n4cnc5c(N)ncnc54)[C@H](OP(=O)(O)O)[C@@H]3O)[C@@H](O)[C@H]2O)C=CC1` [NADPH] as the molecule, how does the Km read?
A: Its Km is 770 µM.

Q: Which Km does the source give for `CC(C)(CO)C(=O)C(=O)O` [ketopantoate] here?
A: Its Km is 740 µM.
